Results published in patent US6423691B1, “Pharmaceutical composition for prophylaxis and therapy of diseases associated with ocular fundus tissue cytography” (Senju Pharmaceutical Co., Ltd., priority 1998, dated 2002).
Peptide text beside a SMILES is read from it. * marks the point of attachment. Cbz = O=C(OCc1ccccc1)*

Experiments:
[1] = tested on: calpain; test: Effect on rat enucleated retina cytopathy under hypoxia (spectrin cleavage, SDS electrophoresis); assay type: cell-based; settings: rat retina incubated under hypoxia in glucose-free RPMI 1640, 3 and 6 hours, 100 μM
Procedure: FIG. 3(a) and FIG. 3(b) are SDS electrophoretic images showing the cleavage product of endocellular spectrin obtained upon homogenation of retina tissues detected after incubation of rat retina tissues under hypoxia, wherein FIG. 3(a) and FIG. 3(b) show SDS electrophoretic images after incubation for 3 hours and 6 hours, respectively.
Effect on Rat Enucleated Retina Cytopathy Under Hypoxia Method:
The ocular fundus tissue (retina) of male SD rats (b. wt. 150 g) was removed and incubated under hypoxia in RPMI 1640 medium (manufactured by (Gibco) without glucose. The ocular fundus tissue was homogenized 3 and 6 hours later, and the cleavage product of endocellular spectrin was isolated by SDS electrophoresis and detected using homophil prepared by the method of Saido et. al. [The Journal of Biological Chemistry, 268, 25239-25243 (1993)]. As the test compounds, Compound 1 and MDL were dissolved in ethanol to a concentration of 20 mM and added to the culture medium to a concentration of 100 μM (Compound 1 administration group and MDL administration group). As a control, the ocular fundus tissue of male SD rats (b. wt. 150 g) was incubated in the same manner in the presence of oxygen in RPMI 1640 medium containing glucose.

[2] = tested on: retinal neurons (ganglion cells) and inner nuclear layer cells; test: Effect on rat ocular fundus tissue cytopathy (central retinal artery occlusion/reperfusion); assay type: in vivo; settings: male SD rats, 75 min central retinal artery occlusion, 100 mg/kg i.p. 15 min before occlusion, immediately after reperfusion, then once daily; specimens 5 days after reperfusion
Text: FIG. 1 is a diagrammatic representation of the effect on injury of rat retinal ganglion cells. The ordinate represents the number of ganglion cells. In the diagram, a) denotes a significant difference (p<0.01) from the normal group by Student's t-test; b) denotes a significant difference (p<0.01) from the control group by Student's t-test.
FIG. 2 is a diagrammatic representation of the effect on injury of the rat retinal inner nuclear layer cells. The ordinate represents the number of inner nuclear layer cells. In the diagram, a) denotes a significant difference (p<0.01) from the normal group by Student's t-test; b) denotes a significant difference (p<0.01) from the control group by Student's t-test.
Effect on Rat Ocular Fundus Tissue Cytopathy Method:
Using male SD rats (b. wt. 150 g), the central retinal artery was occluded with an aneurysm clip under anesthesia with 5 w/v % ketamine HCl/2 w/v % xylazine HCl (3:1, 0.5 ml, i.p.) to arrest the blood flow for 75 minutes. In the normal group, the central retinal artery was exposed but ischemia was not introduced. Tissue specimens were prepared 5 days after reperfusion. For use as a tissue specimen, the enucleated eyeball was fixed in 4% formaldehyde and embedded in paraffin in a routine manner. Then, thin sections (3 μm thick) were prepared by transverse slicing at right angles with the retinal surface including the optic disc and stained with hematoxylin-eosin. Under the light microscope, the retinal neurons (ganglion cells) and inner nuclear layer cells were counted per 0.25 mm span of the retinal section at a predetermined distance (1-2 mm) from the optic disc. As the test drug, a parenteral suspention prepared as in Example 3 was administered intraperitoneally in a dose of 100 mg, as Compound 1, per kg body weight 15 minutes before arterial occlusion, immediately after reperfusion, and thereafter once daily (Compound 1 administration group). The control and normal groups were similarly given the vehicle used in Example 3. In the positive control group, Cbz-Val-Phe-H [S.C. Hong et al., Stroke, 25 (3), 663-669, 1994], 100 mg/kg, was similarly administered (MDL administration group).

Row | SMILES | 145 kDa band (cleavage product of spectrin) [1] | 150 kDa band due to the digestion of spectrin [1] | inhibition of the decrease in ganglion cell count caused by arterial occlusion [2] | inhibition of the decrease in inner nuclear layer cell count caused by arterial occlusion [2]
1 | CC(C)C[C@@H](C=O)NC(=O)[C@@H](NS(=O)(=O)c1ccc(F)cc1)C(C)C [Compound 1, N-(4-fluorophenylsulfonyl)-L-valyl-L-leucinal] | not detected | somewhat detected | significantly inhibited | significantly inhibited
2 | CC(C)[C@H](NC(=O)OCc1ccccc1)C(=O)N[C@H](C=O)Cc1ccccc1 [MDL, Cbz-Val-Phe-H] (Cbz-Val-Phe-aldehyde) | not detected | somewhat detected | slight | slight
